pIC50: −log10 of the molar value. Like-named read-outs stand apart in the source and are kept apart here. Marks after values point to notes of the source that are not given here.
Columns and labels:
[1] = Analysis of metabolites in hepatocytes; type: in vitro ADME, rat, dog, Cynomolgus macaque, human; conditions: 10 μM, hepatocytes of four species, 0, 60 and 90 minutes
Method: Studies were conducted by BioFocus (Saffron Walden, UK) to determine the metabolic fate of the compound of Example 2 following incubation with rat, dog, Cynomolgus macaque or human hepatocytes.
Sample replicates were pooled prior to analysis.
Potential metabolites were identified using time-of-flight (TOF) and triple quadruple (TQ) mass spectrometers.

d-U937 cells = test: (a) LPS-induced TNFα/IL-8 release in d-U937 cells; type: cell-based; conditions: Homo sapiens, dU937 cells
Method: U937 cells, a human monocytic cell line, are differentiated into macrophage-type cells by incubation with PMA (100 ng/mL) for 48 to 72 hr. Cells are pre-incubated with final concentrations of test compound for 2 hr and are then stimulated with LPS (0.1 μg/mL; from E. Coli: O111:B4, Sigma) for 4 hr. The supernatant is collected for determination of TNFα and IL-8 concentrations by sandwich ELISA (Duo-set, R&D systems). […] The relative 50% effective concentration (REC50) is determined from the resultant concentration-response curve. The inhibition of IL-8 production is calculated at each concentration of test compound by comparison with vehicle control.

[2] = Cryopreserved hepatocyte stability, rat; type: in vitro ADME; conditions: pooled cryopreserved hepatocytes, read-out: Mean intrinsic clearance
Method: Formulae Clint(tissue clearance) mL/min/kg=[0.693/t½ (min)]×[1/microsomal protein concentration mg/mL]×[mg microsomes/g liver]×[g liver/kg body weight] […] The incubations were performed at 37° C. with 100 μL, samples taken from the incubation, at 0, 10, 20, 45 and 90 minutes, and reactions terminated by addition of 100 μL of acetonitrile containing carbamazepine as analytical internal standard. […] Half-life values were calculated from the relationship T1/2 (min)=−0.693/λ • where λ was the slope of the Ln concentration vs time curve. • Standard compounds testosterone, midazolam and 4-methylumbelliferone are included in the assay design.
Clint(Tissue Clearance) mL/min/kg=[0.693/t½(min)]×[1/hepatocyte concentration (million cells/mL)]×[million cells/g liver]×[g liver/kg body weight] Clint(Hepatic clearance) mL/min/kg=hepatic blood flow×Clint/(hepatic blood flow+Clint) Hepatic extraction ratio(Eh)=Clint(Hepatic clearance) mL/min/kg/hepatic blood flow (mL/min/kg)

[3] = tested on: adoptive transfer mouse model; test: (D) Adoptive transfer in mice; type: in vivo, female SCID mice
Method: On Study day 0, female Balb/C mice are terminated and spleens obtained for CD45RB^high cell isolation (Using SCID IBD cell Separation protocol). Approximately 4×10^5 cells/mL CD45RB^high cells are then injected IP (100 μL/mouse) into female SCID animals. On study day 14, mice are weighed and randomized into treatment groups based on body weight. On Day 14 compounds are administered BID, via oral gavage, in a peanut oil vehicle at the dose levels outlined below and a dose volume of 5 mL/kg. Treatment continues until study day 42, at which point the animals are necropsied 4 hours after am administration. The colon length and weight is recorded and used as a secondary endpoint in the study as a measurement of colon oedema. The colon is then divided into six cross-sections, four of which are used for histopathology scoring (primary endpoint) and two are homogenised for cytokine analysis. Data shown is the % inhibition of the induction window between naïve animals and vehicle animals, where higher inhibition implies closer to the non-diseased, naïve, phenotype.

kinases = test: KinomeScan selectivity scores / number of hits; type: binding
Method: These assays may be conducted by DiscoverX (formerly Ambit; San Diego, Calif.). The percentage inhibition produced by incubation with a test compound may be calculated relative to the non-inhibited control.

[4] = Hydrolytic stability study in DMSO and water (3:1); type: physicochemical; conditions: 1 mg/mL
Method: General HPLC Procedure • Agilent, Waters X-Select C18, 2.5 μm, 4.6×30 mm column, 4 min method, 5-95% MeCN/water (0.1% formic acid). • Flow rate 2.5 ml/min • Column Oven Temperature 40° C. • Detection 254 nm.
Sample Preparation • A 1.0 mg sample of test compound was dissolved in 750 μL of DMSO. Water (250 μL) was added slowly, ensuring no precipitation occurred.
Recording Stability • A 50 μL aliquot of the test solution was removed and analysed in duplicate by 5 μL HPLC injections. The peak area for the test compound was recorded following manual integration of the corresponding UV trace. • The test solution was heated to 60° C., with stirring, and 50 μL aliquots removed for HPLC analysis at 5 and 24 h timepoints.

B-Raf (V600e) = B-Raf (V600e) (Homo sapiens (Human), UniProt P15056, V600E); test: KINOMEscan enzyme binding assay, B-Raf (V600e)
Method: Kinase enzyme binding activities of compounds disclosed herein may be determined using a proprietary assay which measures active site-directed competition binding to an immobilized ligand (Fabian, M. A. et al., Nature Biotechnol., 2005, 23:329-336). These assays may be conducted by DiscoverX (formerly Ambit; San Diego, Calif.). The percentage inhibition produced by incubation with a test compound may be calculated relative to the non-inhibited control.

[5] = tested on: 71 receptors and 26 enzymes; test: Cerep Diversity Profile; type: binding; conditions: 300 nM; any of 71 receptors and 26 enzymes

B-Raf (V600e), sequence (P15056 whole entry V600E): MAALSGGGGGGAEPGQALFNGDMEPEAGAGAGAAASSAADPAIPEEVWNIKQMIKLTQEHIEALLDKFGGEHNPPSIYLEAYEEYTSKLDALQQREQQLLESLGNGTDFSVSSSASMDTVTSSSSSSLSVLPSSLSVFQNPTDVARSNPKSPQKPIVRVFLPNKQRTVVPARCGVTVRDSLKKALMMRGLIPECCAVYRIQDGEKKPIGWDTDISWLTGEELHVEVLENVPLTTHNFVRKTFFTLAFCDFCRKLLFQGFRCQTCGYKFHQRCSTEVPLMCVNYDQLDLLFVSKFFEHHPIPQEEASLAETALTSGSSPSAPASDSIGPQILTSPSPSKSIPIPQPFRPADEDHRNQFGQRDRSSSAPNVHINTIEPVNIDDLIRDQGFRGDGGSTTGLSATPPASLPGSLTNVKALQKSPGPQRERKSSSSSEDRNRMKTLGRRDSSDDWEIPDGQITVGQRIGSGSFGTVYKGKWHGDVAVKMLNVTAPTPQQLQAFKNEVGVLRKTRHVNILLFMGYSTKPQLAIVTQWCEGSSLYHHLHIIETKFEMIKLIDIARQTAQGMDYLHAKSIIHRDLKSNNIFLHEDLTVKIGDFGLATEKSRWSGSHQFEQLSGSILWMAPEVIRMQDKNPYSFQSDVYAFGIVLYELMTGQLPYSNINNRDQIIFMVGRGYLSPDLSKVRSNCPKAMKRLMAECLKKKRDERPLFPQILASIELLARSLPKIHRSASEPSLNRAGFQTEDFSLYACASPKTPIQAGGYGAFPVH

total metabolites identified in all studies [1]: nine | pIC50 (d-U937 cells; read-out: IC50 for Inhibition of Cytokine Release, IL-8): 9.30 | pIC50 (d-U937 cells; read-out: IC50 for Inhibition of Cytokine Release, TNFα): 9.30 | hepatocyte CLint at 0.1 μM [2]: 49 µL/min/1e6 cells | % left ([4]; 0 min): 100% | % left ([4]; 60° C., 300 min): 83% | % left ([4]; 60° C., 1440 min): 39% | effect on the binding of B-Raf (V600e) to its standard ligand (B-Raf (V600e)): did not have any effect | inhibition of the control specific binding in the receptor binding assays or enzyme assays [5]: less than 25%
SMILES: C#Cc1cc(Nc2nccc(Oc3ccc(NC(=O)Nc4cc(C(C)(C)C)nn4-c4ccc(C)cc4)c4ccccc34)n2)cc(C(=O)NCCOCCOCCOC)c1 [Example 2, 3-((4-((4-(3-(3-(tert-Butyl)-1-(p-tolyl)-1H-pyrazol-5-yl)ureido)naphthalen-1-yl)oxy)pyrimidin-2-yl)amino)-5-ethynyl-N-(2-(2-(2-methoxyethoxy)ethoxy)ethyl)-benzamide]
% Inhibition of colon weight:length ([3]; 0.04 mg/kg BID oral): 25%# | % inhibition of IL-8 release ([3]; 0.04 mg/kg BID oral): 34%# | % inhibition of overall histopathology score ([3]; 0.04 mg/kg BID oral): 2% | % Inhibition of colon weight:length ([3]; 0.2 mg/kg BID oral): 23% | % inhibition of IL-8 release ([3]; 0.2 mg/kg BID oral): 39% | % inhibition of overall histopathology score ([3]; 0.2 mg/kg BID oral): 5% | % Inhibition of colon weight:length ([3]; 1 mg/kg BID oral): 43%# | % inhibition of IL-8 release ([3]; 1 mg/kg BID oral): 36%# | % inhibition of overall histopathology score ([3]; 1 mg/kg BID oral): 33% | % Inhibition of colon weight:length ([3]; 5 mg/kg BID oral): 61%* | % inhibition of IL-8 release ([3]; 5 mg/kg BID oral): 90%# | % inhibition of overall histopathology score ([3]; 5 mg/kg BID oral): 46% | KinomeScan S(1) number of hits (kinases; 50 nM): 0 | KinomeScan S(10) number of hits (kinases; 50 nM): 8 | KinomeScan S(35) number of hits (kinases; 50 nM): 32 | KinomeScan S(1) number of hits (kinases; 500 nM): 4 | KinomeScan S(10) number of hits (kinases; 500 nM): 39 | KinomeScan S(35) number of hits (kinases; 500 nM): 92

Reference: patent US10301288B2, “Kinase inhibitors” (Topivert Pharma Limited, priority 2013, dated 2019)
